Results reported in patent US4604381A, “4-demethoxy-13-dihydrodaunorubicin and use thereof” (Farmitalia Carlo Erba S.p.A., priority 1984, dated 1986).
In brackets after ≈: the same amount, converted by molar mass. Where two headings read alike, the source gives them in different places.

Tests used:
HeLa cells = test: Colony inhibition test on HeLa cells (cytotoxicity); format: cell-based; conditions: Homo sapiens; for IC50: read-out: DI50 (dose causing 50% inhibition)
Description: Cytotoxicity. Colony inhibition test on HeLa cells.
The test was carried on HeLa according to the method described in J. Med. Chem., 1975, 18, 703. Exponentially growing cells (2 days after inoculation) were treated with several concentrations of daunorubicin, 4-demethoxydaunorubicin, and 4-demethoxy-13-dihydrodaunorubicin.
After 24 hours of exposure to the drugs, the cells were washed, trypsinized and plated (200 cells/plate). On day 6 the colonies containing more than 50 cells were counted. The dose causing 50% inhibition was calculated on the basis of dose-reponsive curves.
Colony inhibition on HeLa cells^a
^b % respect with control

leukemia P 388 = test: Activity against ascitic leukemia P 388 in CDF-1 mice; format: in vivo; conditions: i.p. on day 1
Description: Activity against ascitic leukemia P 388
The experiments were performed on CDF-1 mice inoculated i.p. with 10^6 leukemic cells/mouse.

Gross leukemia = test: Activity against Gross leukemia in C3H mice; format: in vivo; conditions: i.v. on day 1
Description: (§1) Activity against Gross leukemia
The experiments were performed on C3H mice inoculated i.v. with 2×10^6 leukemic cells/mouse.
as §1

[1] = test system: advanced mammary Carcinoma; test: Activity against advanced mammary carcinoma in C3H female mice; format: in vivo; conditions: once a week × 4 from palpable tumor; for growth % on day 48: controls 3476
Description: Activity against advanced mammary Carcinoma^a
The experiments were performed on C3H female mice inoculated
with 2 × 10^6 tumor cells/mouse
^a treatment once a week × 4, starting when the tumor was […]

[2] = HeLa, 24 h, read-out: % Colonies (% respect with control)

With CC(O)[C@]1(O)Cc2c(O)c3c(c(O)c2[C@@H](O[C@H]2C[C@H](N)[C@H](O)[C@H](C)O2)C1)C(=O)c1ccccc1C3=O (stereo partly shown) [4-demethoxy-13-dihydrodaunorubicin] the activity at 0.00156 µg/mL (HeLa cells; [2]) was 100%, the activity at 0.0031 µg/mL (HeLa cells; [2]) was 45% and the activity at 0.0062 µg/mL (HeLa cells; [2]) was 9%. The activity at 0.0125 µg/mL (HeLa cells; [2]) was 0%, the IC50 (HeLa cells; HeLa, 24 h) was 3 ng/mL (≈ 0.00601 µM) and the T/C % (leukemia P 388; 0.14 mg/kg) was 130%. The toxic deaths (leukemia P 388; 0.14 mg/kg) was 0/10, the T/C % (leukemia P 388; 0.22 mg/kg) was 160% and the toxic deaths (leukemia P 388; 0.22 mg/kg) was 0/10. For the same compound, the T/C % (leukemia P 388; 0.33 mg/kg) was 170%, the toxic deaths (leukemia P 388; 0.33 mg/kg) was 0/10 and the T/C % (leukemia P 388; 0.5 mg/kg) was 170%. For the same compound, the toxic deaths (leukemia P 388; 0.5 mg/kg) was 3/10, the T/C % (Gross leukemia; 0.84 mg/kg) was 200% and the toxic deaths (Gross leukemia; 0.84 mg/kg) was 0/10. For the same compound, the T/C % (Gross leukemia; 1.26 mg/kg) was 250%, the toxic deaths (Gross leukemia; 1.26 mg/kg) was 0/10 and the T/C % (Gross leukemia; 1.9 mg/kg) was 258%. The toxic deaths (Gross leukemia; 1.9 mg/kg) was 0/10, the “inhibition % on day 48” value ([1]; 0.6 mg/kg) was 0% and the “growth % on day 48” value ([1]; 0.6 mg/kg) was 5124%. For the same compound, the “inhibition % on day 48” value ([1]; 0.8 mg/kg) was 3%, the “growth % on day 48” value ([1]; 0.8 mg/kg) was 3374% and the “inhibition % on day 48” value ([1]; 1.2 mg/kg) was 65%. The “growth % on day 48” value ([1]; 1.2 mg/kg) was 1201%.
Work on CC(=O)[C@]1(O)Cc2c(O)c3c(c(O)c2[C@@H](O[C@H]2C[C@H](N)[C@H](O)[C@H](C)O2)C1)C(=O)c1ccccc1C3=O [4-demethoxydaunorubicin] yielded an activity at 0.0015 µg/mL (HeLa cells; HeLa, 1.5 ng/ml, 24 hours exposure, read-out: % Colonies (% respect with control)) of 126%, an activity at 0.0031 µg/mL (HeLa cells; HeLa, 3.1 ng/ml, 24 hours exposure, read-out: % Colonies (% respect with control)) of 73% and an activity at 0.0062 µg/mL (HeLa cells; HeLa, 6.2 ng/ml, 24 hours exposure, read-out: % Colonies (% respect with control)) of 37%. It also gave an activity at 0.0125 µg/mL (HeLa cells; HeLa, 12.5 ng/ml, 24 hours exposure, read-out: % Colonies (% respect with control)) of 10%, an activity at 0.025 µg/mL (HeLa cells; HeLa, 25 ng/ml, 24 hours exposure, read-out: % Colonies (% respect with control)) of 0% and an IC50 (HeLa cells; HeLa colony inhibition, 24 hours exposure) of 5.5 ng/mL (≈ 0.0111 µM). For the same compound, the T/C % (leukemia P 388; 0.33 mg/kg) was 150%, the toxic deaths (leukemia P 388; 0.33 mg/kg) was 0/10 and the T/C % (leukemia P 388; 0.5 mg/kg) was 170%. The toxic deaths (leukemia P 388; 0.5 mg/kg) was 0/10, the T/C % (leukemia P 388; 0.75 mg/kg) was 155% and the toxic deaths (leukemia P 388; 0.75 mg/kg) was 3/10. The T/C % (Gross leukemia; 1.9 mg/kg) was 233%, the toxic deaths (Gross leukemia; 1.9 mg/kg) was 0/10 and the T/C % (Gross leukemia; 2.5 mg/kg) was 233%. For the same compound, the toxic deaths (Gross leukemia; 2.5 mg/kg) was 0/10, the T/C % (Gross leukemia; 3.3 mg/kg) was 266% and the toxic deaths (Gross leukemia; 3.3 mg/kg) was 0/10. The “inhibition % on day 48” value ([1]; 0.8 mg/kg) was 0%, the “growth % on day 48” value ([1]; 0.8 mg/kg) was 4322% and the “inhibition % on day 48” value ([1]; 1.2 mg/kg) was 42%. For the same compound, the “growth % on day 48” value ([1]; 1.2 mg/kg) was 2029%.
COc1cccc2c1C(=O)c1c(O)c3c(c(O)c1C2=O)C[C@@](O)(C(C)=O)C[C@@H]3O[C@H]1C[C@H](N)[C@H](O)[C@H](C)O1 [daunorubicin] was tested, and the activity at 0.0062 µg/mL (HeLa cells; [2]) was 92%, the activity at 0.0125 µg/mL (HeLa cells; [2]) was 32% and the activity at 0.025 µg/mL (HeLa cells; [2]) was 3%. For the same compound, the IC50 (HeLa cells; HeLa, 24 h) was 11 ng/mL (≈ 0.0209 µM), the T/C % (leukemia P 388; 4.4 mg/kg) was 180% and the toxic deaths (leukemia P 388; 4.4 mg/kg) was 0/10. The T/C % (leukemia P 388; 6.6 mg/kg) was 168%, the toxic deaths (leukemia P 388; 6.6 mg/kg) was 2/10 and the T/C % (Gross leukemia; 10 mg/kg) was 150%. For the same compound, the toxic deaths (Gross leukemia; 10 mg/kg) was 0/10, the T/C % (Gross leukemia; 15 mg/kg) was 183% and the toxic deaths (Gross leukemia; 15 mg/kg) was 0/10. For the same compound, the T/C % (Gross leukemia; 22.5 mg/kg) was 233% and the toxic deaths (Gross leukemia; 22.5 mg/kg) was 0/10.
